Test results from article PMC9226124, “Macrocycle-stabilization of its interaction with 14-3-3 increases plasma membrane localization and activity of CFTR” (Nature Communications, 2022).
Values joined by “and” are separate entries in the source; they are usually repeats but may differ in a detail not shown here. Identical values can stand only once.

Key:
[1] = molecular target: T1, 14-3-3β/CFTRpS753pS768 complex (Homo sapiens, UniProt P13569+P31946); experiment: FP assay, 14-3-3β titration at constant compound concentration (apparent KD); type: binding
T1 construct: His6 (cleaved yes); made in house; peptide synthetic
T1 sequence (P31946 whole entry): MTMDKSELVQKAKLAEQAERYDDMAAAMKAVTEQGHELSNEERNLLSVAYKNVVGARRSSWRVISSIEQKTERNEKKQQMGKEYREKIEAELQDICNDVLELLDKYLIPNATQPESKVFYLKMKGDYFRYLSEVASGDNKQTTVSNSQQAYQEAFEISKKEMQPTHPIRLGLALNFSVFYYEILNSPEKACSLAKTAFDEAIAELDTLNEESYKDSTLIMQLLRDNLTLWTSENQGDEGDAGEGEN
T1 sequence (P13569 747-774 limits assumed): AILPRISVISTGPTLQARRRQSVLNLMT

[2] = molecular target: T2, FITC-labeled CFTRpS753pS768 peptide (no 14-3-3) (Homo sapiens, UniProt P13569); experiment: Dose-response FP control assay in the absence of 14-3-3; type: binding; details: No 14-3-3
T2 construct: made in house; host or cells: synthetic peptide
Method in brief: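 Control run without 14-3-3: FITC-CFTR pS753/pS768 peptide (100 nM or 10 nM) with compound titrated in twofold dilutions in 10 mM HEPES pH 7.4, 150 mM NaCl, 0.1% Tween20, 1 mg/mL BSA. Fluorescence polarization read at ex 485/em 535 nm, background subtracted, n = 3. Curves fitted by four-parameter log(agonist) vs. response.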

[3] = CY compound (100 μM), 14-3-3β concentration 1.5625e-5 M
[4] = CY compound (100 μM), 14-3-3β concentration 3.125e-5 M
[5] = CY compound (100 μM), 14-3-3β concentration 6.25e-5 M
[6] = CY compound (100 μM), 14-3-3β concentration 0.000125 M
[7] = CY compound (100 μM), 14-3-3β concentration 0.00025 M
[8] = CY compound (100 μM), 14-3-3β concentration 0.0005 M
[9] = FC-A + CY compound, 14-3-3β concentration 1.5625e-5 M
[10] = FC-A + CY compound, 14-3-3β concentration 3.125e-5 M
[11] = FC-A + CY compound, 14-3-3β concentration 6.25e-5 M
[12] = FC-A + CY compound, 14-3-3β concentration 0.000125 M
[13] = FC-A + CY compound, 14-3-3β concentration 0.00025 M
[14] = FC-A + CY compound, 14-3-3β concentration 0.0005 M

Q: How did the “Fluorescence polarization signal, 14-3-3β titration” value (“Fluorescence polarization signal” below) ([1]; CY compound (100 μM), 14-3-3β concentration 119.2 pM) turn out when N=C(N)NCCCC1NC(=O)C(CCC(N)=O)NC(=O)C(CCCNC(=N)N)NC(=O)C2CCCN2Cc2cccc(c2)-c2ccccc2CNC1=O (centres unmarked) [CY007455] was run?
A: 1.333

Q: What about the “Fluorescence polarization signal” value ([1]; CY compound (100 μM), 14-3-3β concentration 4.88281e-7 M) of the same compound?
A: 8.333 and 7.333

Q: What about the “Fluorescence polarization signal” value ([1]; CY compound (100 μM), 14-3-3β concentration 9.76563e-7 M) of the same compound?
A: 12.3333 and 8.333 and 11.3333

Q: What about the “Fluorescence polarization signal” value ([1]; CY compound (100 μM), 14-3-3β concentration 1.95313e-6 M) of the same compound?
A: 20.3333 and 17.3333 and 14.3333

Q: And the “Fluorescence polarization signal” value ([1]; CY compound (100 μM), 14-3-3β concentration 3.90625e-6 M)?
A: 27.3333 and 24.3333 and 22.3333

Q: What about the “Fluorescence polarization signal” value ([1]; CY compound (100 μM), 14-3-3β concentration 7.8125e-6 M) of the same compound?
A: 38.3333 and 32.3333 and 35.3333

Q: What about the “Fluorescence polarization signal” value [1, 3] of the same compound?
A: 51.3333 and 50.3333 and 48.3333

Q: And the “Fluorescence polarization signal” value [1, 4]?
A: 68.3333 and 69.3333 and 65.3333

Q: What about the “Fluorescence polarization signal” value [1, 5] of the same compound?
A: 92.3333 and 88.3333 and 91.3333

Q: What about the “Fluorescence polarization signal” value [1, 6] of the same compound?
A: 110.333 and 109.333

Q: What about the “Fluorescence polarization signal” value [1, 7] of the same compound?
A: 128.333 and 124.333 and 127.333

Q: What about the “Fluorescence polarization signal” value [1, 8] of the same compound?
A: 152.333 and 149.333

Q: What about the “Fluorescence polarization signal” value ([1]; FC-A + CY compound, 14-3-3β concentration 119.2 pM) of the same compound?
A: 2 and 1

Q: And the “Fluorescence polarization signal” value ([1]; FC-A + CY compound, 14-3-3β concentration 6.10352e-8 M)?
A: 5 and 6 and 9

Q: What about the “Fluorescence polarization signal” value ([1]; FC-A + CY compound, 14-3-3β concentration 1.2207e-7 M) of the same compound?
A: 9 and 7

Q: And the “Fluorescence polarization signal” value ([1]; FC-A + CY compound, 14-3-3β concentration 2.44141e-7 M)?
A: 10 and 13 and 15

Q: And the “Fluorescence polarization signal” value ([1]; FC-A + CY compound, 14-3-3β concentration 4.88281e-7 M)?
A: 23 and 24 and 20

Q: And the “Fluorescence polarization signal” value ([1]; FC-A + CY compound, 14-3-3β concentration 9.76563e-7 M)?
A: 41 and 39 and 35

Q: What about the “Fluorescence polarization signal” value ([1]; FC-A + CY compound, 14-3-3β concentration 1.95313e-6 M) of the same compound?
A: 58 and 54 and 52

Q: What about the “Fluorescence polarization signal” value ([1]; FC-A + CY compound, 14-3-3β concentration 3.90625e-6 M) of the same compound?
A: 74 and 73 and 71

Q: And the “Fluorescence polarization signal” value ([1]; FC-A + CY compound, 14-3-3β concentration 7.8125e-6 M)?
A: 91 and 96 and 92

Q: What about the “Fluorescence polarization signal” value [1, 9] of the same compound?
A: 115 and 114

Q: And the “Fluorescence polarization signal” value [1, 10]?
A: 128 and 129 and 126

Q: What about the “Fluorescence polarization signal” value [1, 11] of the same compound?
A: 141 and 144

Q: And the “Fluorescence polarization signal” value [1, 12]?
A: 157 and 153 and 158

Q: What about the “Fluorescence polarization signal” value [1, 13] of the same compound?
A: 160 and 164

Q: And the “Fluorescence polarization signal” value [1, 14]?
A: 175 and 174

Q: And the FP signal ([2]; compound 476.8 pM)?
A: 5

Q: And the FP signal ([2]; compound 953.7 pM)?
A: 6

Q: And the FP signal ([2]; compound 1.90735e-9 M)?
A: 3

Q: What about the FP signal ([2]; compound 3.8147e-9 M) of the same compound?
A: 4

Q: What about the FP signal ([2]; compound 7.6294e-9 M) of the same compound?
A: 5

Q: And the FP signal ([2]; compound 1.52588e-8 M)?
A: 4

Q: And the FP signal ([2]; compound 3.05176e-8 M)?
A: 4

Q: What about the FP signal ([2]; compound 6.10352e-8 M) of the same compound?
A: 5

Q: What about the FP signal ([2]; compound 1.2207e-7 M) of the same compound?
A: 7

Q: What about the FP signal ([2]; compound 2.44141e-7 M) of the same compound?
A: 6

Q: And the FP signal ([2]; compound 4.88281e-7 M)?
A: 4

Q: And the FP signal ([2]; compound 9.76563e-7 M)?
A: 4

Q: What about the FP signal ([2]; compound 1.95313e-6 M) of the same compound?
A: 5

Q: What about the FP signal ([2]; compound 3.90625e-6 M) of the same compound?
A: 9

Q: And the FP signal ([2]; compound 7.8125e-6 M)?
A: 8

Q: And the FP signal ([2]; compound 1.5625e-5 M)?
A: 15

Q: And the FP signal ([2]; compound 3.125e-5 M)?
A: 26

Q: What about the FP signal ([2]; compound 6.25e-5 M) of the same compound?
A: 53

Q: What about the FP signal ([2]; compound 0.000125 M) of the same compound?
A: 107

Q: And the FP signal ([2]; compound 0.00025 M)?
A: 170

Q: What about the FP signal ([2]; compound 0.0005 M) of the same compound?
A: 209

Q: And the FP signal ([2]; compound 0.001 M)?
A: 244

Q: For N=C(N)NCCCC1NC(=O)C(CCC(N)=O)NC(=O)C(CCCNC(=N)N)NC(=O)C2CCCN2Cc2cccc(c2)-c2ccccc2CNC1=O (centres unmarked) [CY007458], which “Fluorescence polarization signal” value [1, 3] is on record?
A: 76.6667

Q: What about the “Fluorescence polarization signal” value [1, 4] of the same compound?
A: 83.6667 and 85.6667

Q: And the “Fluorescence polarization signal” value [1, 5]?
A: 102.667 and 98.6667 and 101.667

Q: And the “Fluorescence polarization signal” value [1, 6]?
A: 115.667 and 111.667 and 118.667

Q: And the “Fluorescence polarization signal” value [1, 7]?
A: 131.667 and 136.667 and 132.667

Q: And the “Fluorescence polarization signal” value [1, 8]?
A: 153.667 and 151.667 and 152.667

Q: What about the “Fluorescence polarization signal” value [1, 9] of the same compound?
A: 140.333 and 143.333 and 144.333

Q: What about the “Fluorescence polarization signal” value [1, 10] of the same compound?
A: 147.333 and 148.333 and 150.333

Q: What about the “Fluorescence polarization signal” value [1, 11] of the same compound?
A: 156.333

Q: What about the “Fluorescence polarization signal” value [1, 12] of the same compound?
A: 159.333 and 161.333 and 160.333

Q: What about the “Fluorescence polarization signal” value [1, 13] of the same compound?
A: 164.333 and 167.333

Q: And the “Fluorescence polarization signal” value [1, 14]?
A: 175.333 and 176.333 and 172.333

Q: What about the FP signal ([2]; compound 476.8 pM) of the same compound?
A: 6

Q: What about the FP signal ([2]; compound 953.7 pM) of the same compound?
A: 5

Q: And the FP signal ([2]; compound 1.90735e-9 M)?
A: 4

Q: And the FP signal ([2]; compound 3.8147e-9 M)?
A: 5

Q: What about the FP signal ([2]; compound 7.6294e-9 M) of the same compound?
A: 7

Q: What about the FP signal ([2]; compound 1.52588e-8 M) of the same compound?
A: 4

Q: And the FP signal ([2]; compound 3.05176e-8 M)?
A: 6

Q: And the FP signal ([2]; compound 6.10352e-8 M)?
A: 5

Q: And the FP signal ([2]; compound 1.2207e-7 M)?
A: 4

Q: And the FP signal ([2]; compound 2.44141e-7 M)?
A: 5

Q: What about the FP signal ([2]; compound 4.88281e-7 M) of the same compound?
A: 6

Q: What about the FP signal ([2]; compound 9.76563e-7 M) of the same compound?
A: 6

Q: And the FP signal ([2]; compound 1.95313e-6 M)?
A: 5

Q: And the FP signal ([2]; compound 3.90625e-6 M)?
A: 8

Q: And the FP signal ([2]; compound 7.8125e-6 M)?
A: 11

Q: What about the FP signal ([2]; compound 1.5625e-5 M) of the same compound?
A: 15

Q: And the FP signal ([2]; compound 3.125e-5 M)?
A: 33

Q: What about the FP signal ([2]; compound 6.25e-5 M) of the same compound?
A: 65

Q: And the FP signal ([2]; compound 0.000125 M)?
A: 124

Q: What about the FP signal ([2]; compound 0.00025 M) of the same compound?
A: 179

Q: What about the FP signal ([2]; compound 0.0005 M) of the same compound?
A: 221

Q: And the FP signal ([2]; compound 0.001 M)?
A: 252
